From patent publication US8541460B2, “PDK-1/Akt signaling inhibitors” (The Ohio State University, priority 2003, dated 2013)

How the values were obtained:
Assay type in all cases: cell-based
[1] = system: A549/ATCC; experiment: NCI DTP cell line screen (SRB), Non-Small Cell Lung Cancer
Experimental: (§1) Screening of compounds 70 and 71 against several cancer cell lines The human tumor cell lines of the cancer screening panel are grown in RPMI 1640 medium containing 5% fetal bovine serum and 2 mM L-glutamine. For a typical screening experiment, cells are inoculated into 96 well microtiter plates in 100 μL at plating densities ranging from 5,000 to 40,000 cells/well depending on the doubling time of individual cell lines. After cell inoculation, the microtiter plates are incubated at 37° C., 5% CO2, 95% air and 100% relative humidity for 24 h prior to addition of experimental drugs.
(§2) After 24 h, two plates of each cell line are fixed in situ with TCA, to represent a measurement of the cell population for each cell line at the time of drug addition (Tz). Experimental drugs are solubilized in dimethyl sulfoxide at 400-fold the desired final maximum test concentration and stored frozen prior to use. At the time of drug addition, an aliquot of frozen concentrate is thawed and diluted to twice the desired final maximum test concentration with complete medium containing 50 μg/ml gentamicin. Additional four, 10-fold or ½ log serial dilutions are made to provide a total of five drug concentrations plus control. Aliquots of 100 μl of these different drug dilutions are added to the appropriate microtiter wells already containing 100 μl of medium, resulting in the required final drug concentrations.
(§3) Following drug addition, the plates are incubated for an additional 48 h at 37° C., 5% CO2, 95% air, and 100% relative humidity. For adherent cells, the assay is terminated by the addition of cold TCA. Cells are fixed in situ by the gentle addition of 50 μl of cold 50% (w/v) TCA (final concentration, 10% TCA) and incubated for 60 minutes at 4° C. The supernatant is discarded, and the plates are washed five times with tap water and air dried. Sulforhodamine B (SRB) solution (100 μl) at 0.4% (w/v) in 1% acetic acid is added to each well, and plates are incubated for 10 minutes at room temperature. After staining, unbound dye is removed by washing five times with 1% acetic acid and the plates are air dried. Bound stain is subsequently solubilized with 10 mM trizma base, and the absorbance is read on an automated plate reader at a wavelength of 515 nm. For suspension cells, the methodology is the same except that the assay is terminated by fixing settled cells at the bottom of the wells by gently adding 50 μl of 80% TCA (final concentration, 16% TCA). Using the seven absorbance measurements [time zero, (Tz), control growth, (C), and test growth in the presence of drug at the five concentration levels (Ti)], the percentage growth is calculated at each of the drug concentrations levels. Percentage growth inhibition is calculated as: [(Ti−Tz)/(C−Tz)]×100 for concentrations for which Ti>/=Tz [(Ti−Tz)/Tz]×100 for concentrations for which Ti<Tz
(§4) Three dose response parameters are calculated for each experimental agent. […] The drug concentration resulting in total growth inhibition (TGI) is calculated from Ti=Tz. […] Values are calculated for each of these three parameters if the level of activity is reached; however, if the effect is not reached or is exceeded, the value for that parameter is expressed as greater or less than the maximum or minimum concentration tested.
(§5) The methods described were used to test compounds 70 and 71 on a panel of sixty cell lines under a screening service provided by the Developmental Therapeutics Program at the National Institutes of Health. Shown in FIG. 1C are 1, RPMI-8226 leukemia cells; 2; NCI-H322M non-small cell lung cancer cells; 3, HT29 colon cancer cells; 4, U251 CNS cancer cells; 5, SK-MEL-28 melanoma cancer cells; 6, SK-OV-3 ovarian cancer cells; 7, RXF 393 renal cancer cells; 8, PC-3 prostate cancer cells; 9, MDA-MB-231 breast cancer cells.

[2] = system: HOP-62; experiment: as above
Experimental: as §1, §2, §3, §4, §5

[3] = system: NCI-H23; experiment: as above
Experimental: as §1, §2, §3, §4, §5

[4] = system: NCI-H460; experiment: as above
Experimental: as §1, §2, §3, §4, §5

[5] = system: HS 578T; experiment: NCI DTP cell line screen (SRB), Breast Cancer; details: HS 578T
Experimental: as §1, §2, §3, §4, §5

[6] = system: MDA-MB-231/ATCC; experiment: NCI DTP cell line screen (SRB), Breast Cancer
Experimental: as §1, §2, §3, §4, §5

[7] = system: NCI/ADR-RES; experiment: NCI DTP cell line screen (SRB), Breast Cancer
Experimental: as §1, §2, §3, §4, §5

[8] = system: T-47D; experiment: NCI DTP cell line screen (SRB), Breast Cancer
Experimental: as §1, §2, §3, §4, §5

[9] = read-out: LC50 (the source's name)

N=C(N)Nc1ccc(-n2nc(C(F)(F)F)cc2-c2ccc3c(ccc4ccccc43)c2)cc1 [Compound 71, 4-[5-(2-Phenanthrenyl)-3-(trifluoromethyl)-1H-pyrazol-1-yl]-phenyl-guanidine]
GI50 [1]: 1680 nM
TGI [1]: 3.04E−06
Mean Optical Densities ([1]; Log10 Concentration −4.0): 0.135
Percent Growth ([1]; Log10 Concentration −4.0): −63%
Mean Optical Densities ([1]; Log10 Concentration −5.0): −0.032
Percent Growth ([1]; Log10 Concentration −5.0): −100%
Mean Optical Densities ([1]; Log10 Concentration −6.0): 1.121
Percent Growth ([1]; Log10 Concentration −6.0): 93%
Mean Optical Densities ([1]; Log10 Concentration −7.0): 1.145
Percent Growth ([1]; Log10 Concentration −7.0): 96%
Mean Optical Densities ([1]; Log10 Concentration −8.0): 1.140
Percent Growth ([1]; Log10 Concentration −8.0): 96%
CC50 [1, 9]: 5510 nM
GI50 [2]: 1720 nM
TGI [2]: 3.12E−06
Mean Optical Densities ([2]; Log10 Concentration −4.0): 0.329
Percent Growth ([2]; Log10 Concentration −4.0): −36%
Mean Optical Densities ([2]; Log10 Concentration −5.0): 0.011
Percent Growth ([2]; Log10 Concentration −5.0): −98%
Mean Optical Densities ([2]; Log10 Concentration −6.0): 1.255
Percent Growth ([2]; Log10 Concentration −6.0): 96%
Mean Optical Densities ([2]; Log10 Concentration −7.0): 1.267
Percent Growth ([2]; Log10 Concentration −7.0): 97%
Mean Optical Densities ([2]; Log10 Concentration −8.0): 1.285
Percent Growth ([2]; Log10 Concentration −8.0): 100%
GI50 [3]: 1790 nM
TGI [3]: 3.18E−06
Mean Optical Densities ([3]; Log10 Concentration −4.0): 0.151
Percent Growth ([3]; Log10 Concentration −4.0): −67%
Mean Optical Densities ([3]; Log10 Concentration −5.0): −0.041
Percent Growth ([3]; Log10 Concentration −5.0): −100%
Mean Optical Densities ([3]; Log10 Concentration −6.0): 1.679
Percent Growth ([3]; Log10 Concentration −6.0): 101%
Mean Optical Densities ([3]; Log10 Concentration −7.0): 1.515
Percent Growth ([3]; Log10 Concentration −7.0): 87%
Mean Optical Densities ([3]; Log10 Concentration −8.0): 1.585
Percent Growth ([3]; Log10 Concentration −8.0): 93%
CC50 [3, 9]: 5640 nM
GI50 [4]: 1640 nM
TGI [4]: 3.04E−06
Mean Optical Densities ([4]; Log10 Concentration −4.0): 0.257
Percent Growth ([4]; Log10 Concentration −4.0): −20%
Mean Optical Densities ([4]; Log10 Concentration −5.0): 0.011
Percent Growth ([4]; Log10 Concentration −5.0): −97%
Mean Optical Densities ([4]; Log10 Concentration −6.0): 1.650
Percent Growth ([4]; Log10 Concentration −6.0): 90%
Mean Optical Densities ([4]; Log10 Concentration −7.0): 1.658
Percent Growth ([4]; Log10 Concentration −7.0): 91%
Mean Optical Densities ([4]; Log10 Concentration −8.0): 1.654
Percent Growth ([4]; Log10 Concentration −8.0): 91%
GI50 [5]: 1860 nM
TGI [5]: 3.78E−06
Mean Optical Densities ([5]; Log10 Concentration −4.0): 0.333
Percent Growth ([5]; Log10 Concentration −4.0): −38%
Mean Optical Densities ([5]; Log10 Concentration −5.0): 0.168
Percent Growth ([5]; Log10 Concentration −5.0): −69%
Mean Optical Densities ([5]; Log10 Concentration −6.0): 1.127
Percent Growth ([5]; Log10 Concentration −6.0): 94%
Mean Optical Densities ([5]; Log10 Concentration −7.0): 1.165
Percent Growth ([5]; Log10 Concentration −7.0): 100%
Mean Optical Densities ([5]; Log10 Concentration −8.0): 1.099
Percent Growth ([5]; Log10 Concentration −8.0): 89%
TGI [6]: 1.66E−06
Mean Optical Densities ([6]; Log10 Concentration −4.0): 0.389
Percent Growth ([6]; Log10 Concentration −4.0): −39%
Mean Optical Densities ([6]; Log10 Concentration −5.0): 0.015
Percent Growth ([6]; Log10 Concentration −5.0): −98%
Mean Optical Densities ([6]; Log10 Concentration −6.0): 0.709
Percent Growth ([6]; Log10 Concentration −6.0): 27%
Mean Optical Densities ([6]; Log10 Concentration −7.0): 0.830
Percent Growth ([6]; Log10 Concentration −7.0): 78%
Mean Optical Densities ([6]; Log10 Concentration −8.0): 0.756
Percent Growth ([6]; Log10 Concentration −8.0): 47%
GI50 [7]: 2640 nM
TGI [7]: 7.73E−06
Mean Optical Densities ([7]; Log10 Concentration −4.0): 0.294
Percent Growth ([7]; Log10 Concentration −4.0): −47%
Mean Optical Densities ([7]; Log10 Concentration −5.0): 0.490
Percent Growth ([7]; Log10 Concentration −5.0): −12%
Mean Optical Densities ([7]; Log10 Concentration −6.0): 1.874
Percent Growth ([7]; Log10 Concentration −6.0): 95%
Mean Optical Densities ([7]; Log10 Concentration −7.0): 1.882
Percent Growth ([7]; Log10 Concentration −7.0): 96%
Mean Optical Densities ([7]; Log10 Concentration −8.0): 1.920
Percent Growth ([7]; Log10 Concentration −8.0): 98%
CC50 [7, 9]: > 100000 nM
GI50 [8]: < 10 nM
TGI [8]: 1.98E−06
Mean Optical Densities ([8]; Log10 Concentration −4.0): 0.198
Percent Growth ([8]; Log10 Concentration −4.0): −53%
Mean Optical Densities ([8]; Log10 Concentration −5.0): 0.100
Percent Growth ([8]; Log10 Concentration −5.0): −76%
Mean Optical Densities ([8]; Log10 Concentration −6.0): 0.529
Percent Growth ([8]; Log10 Concentration −6.0): 32%
Mean Optical Densities ([8]; Log10 Concentration −7.0): 0.578
Percent Growth ([8]; Log10 Concentration −7.0): 47%
Mean Optical Densities ([8]; Log10 Concentration −8.0): 0.541
Percent Growth ([8]; Log10 Concentration −8.0): 36%
CC50 [8, 9]: 5720 nM
